According to patent publication US20050019836A1, “Bioanalytical reagent, method for production thereof, sensor platforms and detection methods based on use of said bioanalytical reagent” (priority 2000, published 2005):
Values belong to the molecule of their own block, whether it stands above or below them.

Experiments:
5HT3A receptor [1] = target: T1, 5HT3A receptor (Mus musculus, UniProt P23979); test: fluorescent ligand binding to surface-immobilized "native" vesicles (confocal fluorescence microscopy); settings: individual discrete immobilized vesicles (n=3) from HEK293 cells; fit with Langmuir isotherm; read-out: dissociation constant Kd
T1 construct: Transient expression of the full wild-type receptor was achieved by co-transfection; expressed in transfected cells; host or cells: HEK293
T1 sequence (P23979 24-489): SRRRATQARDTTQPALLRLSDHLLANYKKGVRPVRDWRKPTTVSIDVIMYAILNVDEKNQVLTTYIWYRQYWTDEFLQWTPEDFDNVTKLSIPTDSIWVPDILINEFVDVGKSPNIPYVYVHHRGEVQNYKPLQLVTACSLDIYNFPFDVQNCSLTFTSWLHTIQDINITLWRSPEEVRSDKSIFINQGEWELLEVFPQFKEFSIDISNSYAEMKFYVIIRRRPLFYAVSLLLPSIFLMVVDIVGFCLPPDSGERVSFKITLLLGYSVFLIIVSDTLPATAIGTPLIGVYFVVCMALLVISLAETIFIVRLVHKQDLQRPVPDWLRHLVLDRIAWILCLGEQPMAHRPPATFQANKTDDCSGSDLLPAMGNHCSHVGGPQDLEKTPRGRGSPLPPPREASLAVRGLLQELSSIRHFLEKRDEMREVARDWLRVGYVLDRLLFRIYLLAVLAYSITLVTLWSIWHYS
Method: The ligand-binding experiments in surface-immobilized vesicles were carried out using the fluorescence-labeled ligand GR-Cy5. For these experiments, a homologous serotonin receptor construct 5HT3A was used that was expressed with an EGFP (Enhanced Green Fluorescent Protein, Clontech) fused at the end of a subunit. The prepared “native” vesicles were immobilized on cover glasses by means of physical adsorption of the vesicles to the glasses, by two-hour or overnight incubation of typically 400 μl of a vesicle preparation solution prepared according to the above method in 6-well plates with cover glasses on the bottom at 4° C. […]
The affinity of the fluorescent ligand for receptors bound to individual, discrete vesicles was determined by sequential addition of ascending concentrations of the fluorescent ligand to one and the same cover glass with vesicles immobilized thereon by overnight incubation. […]
The fluorescence intensities of the ligand were measured with a confocal fluorescence microscope (Zeiss, Laser Scanning Microscope LSM510), using a suitable filter set. The fluorescence signal of the GFP additionally incorporated into the vesicles was used in each case to adjust the microscope to the working distance of the plane in which the vesicles lay before the ligand was added. […]

5HT3A receptor [2] = target: T1, 5HT3A receptor; test: competitive radiological binding assay with [3H]-GR65630, receptor in whole mother cells
5HT3A receptor [3] = target: T1, 5HT3A receptor; test: competitive radiological binding assay with [3H]-GR65630, receptor in "native" vesicles in solution
Method: To this end, samples of said reagent were incubated with the vesicles in solution for 60 minutes at room temperature with 1.5 nM of the tritium-labeled ligand [^3H]-GR65630 in 240 μl HEPES buffer (10 mM HEPES, pH 7.4) (HEPES: 4-(2-hydroxyethyl)piperazine-1-ethanesulfonic acid) in 96-well MultiScreen plates (Millipore, F-Molsheim). The incubation was completed by rapid filtration followed by washing 3 times with 300 μl of ice-cold HEPES buffer each time. The filters were transferred to scintillation vessels and each taken up in 1 ml of Ultima Gold TM (Packard, meridan, USA). The radioactivity was measured using a TriCarb 2200CA liquid scintillation counter. The extent of nonspecific binding to the receptor and to the vesicles was estimated in the presence of a high surplus of quipazine (1 μM). The dissociation constant Kd was determined from Scatchard plots in 6 different concentrations of the ligand [^3H]-GR65630. […] All experiments were carried out in duplicate.

5HT3A serotonin receptor = target: T2, 5HT3A serotonin receptor (Mus musculus, UniProt P23979); test: agonist-induced calcium signal (Fluo-3) in "native" vesicles with incorporated 5HT3A receptor; format: cell-based; settings: 350 μM agonist; Fluo-3 loaded vesicles
T2 construct: expressed in transfected cells; host or cells: HEK cells
T2 sequence (P23979 24-489): T1 sequence (P23979 24-489)
Method: In this case, the original HEK cells from which the vesicles were obtained following the addition of cytochalasin according to the method described hereinabove were loaded with the acetoxymethyl ester of Fluo-3 as calcium indicator (generally 20 μg Fluo-3 in 500 μl DMEM/F12 medium). The prepared vesicles contained said fluorescent calcium indicator and parts of the endoplasmic reticulum in addition to the 5HT3A receptor.
Fluorescence excitation of the Fluo-3 was performed at 488 nm. The emission was measured at 500-530 nm. The vesicles loaded with Fluo-3 were then stimulated with 350 μM m-chlorophenylbiguanide hydrochloride (mCPG), a receptor-specific agonist. Stimulation was performed by addition of the agonist to the vesicle medium (t=0 sec). The maximum fluorescence signal that occurred through binding of the calcium to the calcium indicator Fluo-3 was already measured less than one minute after addition of the agonist. The value amounted to 35 μM free calcium ions in the vesicle interior, i.e. in the cytosol surrounded by the vesicle. With the aid of calcium indicator Fluo-3, free calcium ions are detected only in the cytosol (vesicle lumen) transferred from the cell of origin. Calcium ions in the endoplasmic reticulum or in other cell organelles or parts of cell organelles possibly included in the vesicle are not determined by this detection method.
The increase in the fluorescence signal up to its maximum value after less than one minute and the subsequent decrease in the fluorescence signal to its baseline value after a further 2 minutes, i.e. after a total of 3 minutes following addition of the agonist, is a sign of the intact functional capacity of the complete mechanism of the signal transduction cascade within the vesicle, i.e. of the ability of the vesicle to “buffer” the concentration of free calcium ions. This includes the action of sodium-calcium exchangers, in addition to the timespan until closure of the receptor's ion channel and desensitization mechanisms characteristic of serotonin.

[4] = HEK293 mother cells, competition with 1.5 nM [3H]-GR65630, 60 min, room temperature, read-out: pKi, receptor in mother cell (converted)
[5] = vesicles from HEK293 cells in solution, competition with 1.5 nM [3H]-GR65630, 60 min, room temperature, read-out: pKi, receptor in "native" vesicles (converted)
[6] = HEK293 mother cells, competition with 1.5 nM [3H]-GR65630, 60 min, room temperature
[7] = vesicles from HEK293 cells in solution, competition with 1.5 nM [3H]-GR65630, 60 min, room temperature

Molecule: Cc1[nH]cnc1CC1CCc2c(c3ccccc3n2CCCN)C1=O (stereo not shown) [GR-H]
Ki (5HT3A receptor [2]): 0.0631 nM
Ki (5HT3A receptor [3]): 0.2 nM

Molecule: Cc1[nH]cnc1CCC(=O)c1cn(C)c2ccccc12 [[^3H]-GR65630]
pKi, receptor in mother cell (5HT3A receptor [2]; [6]): 9.0 ± 0.1
pKi, receptor in "native" vesicles (5HT3A receptor [3]; [7]): 9.4 ± 0.1

Molecule: N=C(N)NC(=N)Nc1cccc(Cl)c1 [mCPBG, m-Chlorophenylbiguanide]
pKi, receptor in mother cell (5HT3A receptor [2]; [6]): 8.2 ± 0.1
pKi, receptor in "native" vesicles (5HT3A receptor [3]; [7]): 8.3 ± 0.1

Molecule: Cl.N=C(N)NC(=N)Nc1cccc(Cl)c1 [mCPG, m-chlorophenylbiguanide hydrochloride]
free calcium ions in the vesicle interior at maximum fluorescence signal (5HT3A serotonin receptor): 35 µM
time to maximum fluorescence signal after addition of the agonist (5HT3A serotonin receptor): less than one
total time until decrease of fluorescence signal to baseline value after addition of the agonist (5HT3A serotonin receptor): 3 min

The remaining lines, values ahead:

Kd (5HT3A receptor [1]): 4.2 nM
Molecule: 1,2,3,9-tetrahydro-3-[(5-methyl-1H-imidazol-4-yl)methyl]-9-(3-amino-(N-rhodamineB-thiocarbamoyl)-propyl)-4H-carbazol-4-one [GR-Rho]

Ki (5HT3A receptor [2]): 3.16 nM
Ki (5HT3A receptor [3]): 2.51 nM
Molecule: Cc1nccn1CC1CCc2c(c3ccccc3n2C)C1=O (stereo not shown) [Ondansetron, 1,2,3,9-tetrahydro-9-methyl-3-[(2-methyl-1H-imidazol-1-yl)methyl]-4H-carbazol-4-one]

Ki (5HT3A receptor [2]; [4]): 316 nM
Ki (5HT3A receptor [3]; [5]): 251 nM
Molecule: N=C(N)NC(=N)Nc1ccccc1 [PBG, Phenylbiguanide]

Ki (5HT3A receptor [2]; [4]): 0.501 nM
Ki (5HT3A receptor [3]; [5]): 0.398 nM
Molecule: c1ccc2nc(N3CCNCC3)ccc2c1 [Quipazine, 2-(1-Piperazinyl)quinoline]
